Data set [1] concerns primary cultures of normal rat astrocytes. Briefly: Screening and dose response assay (percent survival, 4 days, cresyl violet) on astrocytes. It counts as cell-based. The conditions noted are these: Table 1. From the text: (§1) Screening and Dose Response Assays. […]-1-(2′-methoxybiphenyl-4-ylmethyl)-3,4-dihydro-1H-isoquinoline-2-carboxylic acid tert-butyl ester (7a; EDL-355) was synthesized as described herein in the laboratory of Dr. Duane D. Miller at The University of Tennessee Health Science Center. Briefly, the primary cultures of astrocytes and cultures of C6 glioma cell lines were handled identically with respect to treatment concentrations and manipulations of cells for the screening assays. The cells were trypsinized and transferred to 96-well plates at a cell density of 10^3 cells/mm^2 in the wells. The cells were grown overnight in 100 μL of 10% FCS BME in a 37° C. incubator containing a humid, 5% CO2 atmosphere.
(§2) EDL-355 was dissolved completely to make a 100 μM stock solution and diluted to produce a series of concentrations.
(§3) A 20 μL aliquot of these initial solutions was added to 180 μl of 2% FCS BME to produce the test concentration. The vehicle solution was tested as a control. […] Immediately before treatment, the 10% FCS BME was removed from the cells and replaced with the […] of the treatment medium. The cultured cells (normal primary cultures of rat brain astrocytes or C6 glioma purchased from ATCC) were incubated with test compound for 4 days. The cells were fixed with 4% paraformaldehyde, stained with 0.1% Cresylecth violet stain, and quantitated. The screening data was collected as four wells for each dose per compound (screening) or concentration (dose response curve). Also, the average growth of 8 wells with no treatment was used as a negative control for each plate (100% growth). The cells for dose response curves were grown in the same media and were handled in a similar manner as in the screening assays.
(§4) Data Analysis. The cytotoxic character of each compound was reported as the percent survival, calculated as the average A560 for treated cells divided by A560 of untreated (100% control) cells, and expressed as a percentage. Values less than 100% indicate a cytostatic or cytotoxic effect. Dose response curves and EC50 values were attained via plots of percent survival vs. concentration.

A further data set concerns C6 rat glioma cells. Briefly: Screening and dose response assay (percent survival, 4 days, cresyl violet) on C6 glioma. It is filed as cell-based.
Text: as §1, §2, §3, §4

Structures can show the parent of a compound that is named as a salt. Where two headings read alike, the source gives them in different places.

On to `COc1cc2c(c(OC)c1)C(Cc1ccc(-c3ccccc3OC)cc1)NCC2` (single isomer, unassigned) [12a], for which the EC50 in data set [1] (listed as drawing 11, read-out: EC50 μM Astrocyte) was 15.4 µM; with C6 rat glioma cells (Table 1, listed as drawing 11, read-out: EC50 μM C6), 5.4 µM; with C6 rat glioma cells (text b70, rat C6 glioma cell lines, listed as (−) 12a, read-out: antiglioma activity on rat C6 glioma cell lines), 5.39 µM.

As to `COc1cc2c(c(OC)c1)C(Cc1ccc(-c3ccccc3OC)cc1)NCC2` (single isomer, unassigned) [13a], the EC50 in data set [1] (Rattus norvegicus, Astrocyte) was found to be 13.3 µM; in the data set with C6 rat glioma cells (Table 1, listed as drawing 12, read-out: EC50 μM C6), 0.3 µM; in the data set with C6 rat glioma cells (text b70, rat C6 glioma cell lines, listed as (+) 13a, read-out: antiglioma activity on rat C6 glioma cell lines) it was 0.26 µM. Also, the “fold more potent than (−) 12a on rat C6 glioma cell lines” value in the data set with C6 rat glioma cells (ratio of the C6 values of (−) 12a and (+) 13a) was approximately 21 fold.

In turn, `COc1cc2c(c(OC)c1)C(Cc1ccc(-c3ccccc3OC)cc1)NCC2.Cl` (stereo not drawn) [9a, 6,8-Dimethoxy-1-(2′-methoxybiphenyl-4-ylmethyl)-1,2,3,4-tetrahydroisoquinoline hydrochloride] registered a melting point of 140 to 142 °C. Moreover, the EC50 in data set [1] (Rattus norvegicus, Astrocyte) is 10.2 µM. Further, the EC50 in data set [1] (hydrochloride, read-out: EC50 μM Astrocyte) was 8.52 µM.

Regarding `COc1cc2c(c(OC)c1)C(Cc1ccc(-c3cnccc3OC)cc1)NCC2` (stereo not drawn) [9b, 6,8-Dimethoxy-1-[4-(4-methoxypyridin-3-yl)benzyl]-1,2,3,4-tetrahydroisoquinoline dihydrochloride], the EC50 in data set [1] (Rattus norvegicus, Astrocyte) turned out to be 13.7 µM; in the data set with C6 rat glioma cells (Rattus norvegicus, Glioma cell, Table 1, read-out: EC50 μM C6), 0.08 µM.

For orientation: melting point means the temperature, or range, at which the solid turns liquid.

Values taken from US20120059032A1, “1,2,3,4-TETRAHYDROISOQUINOLINE DERIVATIVES EFFECTIVE AS ANTIGLIOMA AGENTS, METHODS OF MAKING, AND THEIR USE” (University of Tennessee Research Foundation, priority 2009, published 2012).
